# Data taken from PubChem BioAssay (NCI).
#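 Briefly, cells in 96-well plates were exposed to five compound concentrations for 48 h, and endpoints were estimated by linear interpolation. TGI marks complete inhibition of growth.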
# Tests used:
# Experiment in all cases: NCI tumour cell line growth inhibition, 48 h
# DLD-1 colon = test system: DLD-1 colon
# DMS 114 small cell lung = test system: DMS 114 small cell lung
# DMS 273 small cell lung = test system: DMS 273 small cell lung
# HCT-116 colon = test system: HCT-116 colon
# HOP-18 NSCLC = test system: HOP-18 NSCLC
# KM20L2 colon = test system: KM20L2 colon
# LXFL 529 NSCLC = test system: LXFL 529 NSCLC
# M19-MEL melanoma = test system: M19-MEL melanoma
# OVCAR-3 ovarian = test system: OVCAR-3 ovarian
# SK-OV-3 ovarian = test system: SK-OV-3 ovarian
# SR leukemia = test system: SR leukemia
# TK-10 renal = test system: TK-10 renal
# P388 leukemia = test system: P388 leukemia
# P388/ADR leukemia = test system: P388/ADR leukemia
# SN12K1 renal = test system: SN12K1 renal
# XF 498 CNS = test system: XF 498 CNS
# SNB-78 CNS = test system: SNB-78 CNS
# RXF-631 renal = test system: RXF-631 renal
SMILES,TGI (DLD-1 colon) [µM],TGI (DMS 114 small cell lung) [µM],TGI (DMS 273 small cell lung) [µM],TGI (HCT-116 colon) [µM],TGI (HOP-18 NSCLC) [µM],TGI (KM20L2 colon) [µM],TGI (LXFL 529 NSCLC) [µM],TGI (M19-MEL melanoma) [µM],TGI (OVCAR-3 ovarian) [µM],TGI (SK-OV-3 ovarian) [µM],TGI (SR leukemia) [µM],TGI (TK-10 renal) [µM],TGI (P388 leukemia) [µM],TGI (P388/ADR leukemia) [µM],TGI (SN12K1 renal) [µM],TGI (XF 498 CNS) [µM],TGI (SNB-78 CNS) [µM],TGI (RXF-631 renal) [µM]
Cc1ccc2c(c1CCCC(C)(C)O)C(=O)C(=O)C(C(C)C)=C2O,> 100,> 100,> 100,> 100,> 100,> 100,> 100,> 100,> 100,> 100,> 100,> 100,,,,,,
CCOC(=O)C(N)CSC(=O)NC (configuration not stated),474,147,375,321,686,507,,157,290,621,158,566,102,104,112,289,,
Cc1cn(C2CC(N(O)Cc3ccccc3)C(CO)O2)c(=O)[nH]c1=O (configuration not stated),,> 100,> 100,> 100,,> 100,> 100,> 100,> 100,> 100,> 100,> 100,,,,> 100,> 100,
NC(CCC(=O)NC(CSC(=O)N(O)c1ccc(Br)cc1)C(=O)NCC(=O)O)C(=O)O (configuration not stated),> 100,> 100,> 100,> 100,> 100,> 100,> 100,> 100,> 100,> 100,> 100,> 100,,,,,> 100,
O=c1cc(-c2ccccc2)[nH]c2cc3c(cc12)OCO3,> 100,,84.9,> 29.8,> 100,12.2,> 100,> 100,22.2,26,67.4,> 94,,,,> 67.2,> 78.8,> 100
COc1cc2c(cc1OCc1ccccc1)CNCC2,> 100,> 100,> 100,> 100,> 100,> 100,> 100,> 100,> 100,> 100,,> 100,,,,> 100,> 100,> 100
CCCCCC(C[N+]1(C)CCOCC1)C(=O)/C=C/c1ccccc1 (configuration not stated),18,26,11.7,11.7,32.1,32.9,11.5,32,27.4,> 88.6,39.1,37.8,,,,28.3,46.9,
O=[N+]([O-])c1ccc(-n2nnc(C3=NCCCN3)c2-c2ccc(Cl)cc2)cc1,> 100,,> 100,> 100,> 100,> 100,> 100,> 100,> 100,> 100,> 100,> 100,,,,> 100,> 100,
CCOC(=O)C(N=Nc1ccc(S(N)(=O)=O)cc1)C(C)=O (configuration not stated),> 100,> 100,> 100,> 100,> 100,> 100,> 100,> 100,> 100,> 100,> 100,> 100,,,,> 100,> 100,> 100
CCN1CCN(c2ccc(Nc3ccnc4ccc5nn(C)nc5c34)cc2)CC1,28.3,22.6,,18.1,,27.4,23.8,29.8,29.5,31.5,> 100,39.4,,,,26.9,33.8,23.9
O=C(C[n+]1ccccc1)NNC(=O)/C(=C/c1ccc2c(c1)OCO2)NC(=O)c1ccccc1,> 62.2,46.4,> 69.8,> 100,> 84.7,> 100,> 77.2,> 100,> 100,> 100,36.6,> 100,,,,> 83.5,> 100,
C/C(=C1/CCCC2(N=NCC2c2ccccc2)C1=O)c1ccccc1 (configuration not stated),> 100,33.2,33.3,53.3,> 100,> 100,65.1,65,40.3,> 100,51.2,> 100,,,,49.2,90.2,
O=C1C(Cl)C(c2ccccc2)N1n1cnc2ccccc2c1=O (configuration not stated),> 100,> 100,> 100,> 100,> 100,> 100,> 100,> 100,> 100,> 100,> 100,> 100,,,,> 100,> 100,
Clc1ccc(-c2c(C3=NCCN3)nnn2-c2ccc(Cl)cc2)cc1,> 100,31.5,> 100,32.3,> 100,32.7,95.4,30.5,> 100,93.3,35.1,69.7,,,,29.5,61.7,
COc1cc2c(cc1OC)C(O)[C@H](Br)C(C)(C)O2 (some centres not stated),> 100,> 100,> 100,> 100,> 100,> 100,> 100,> 100,> 100,> 100,> 100,> 100,,,,> 100,,
CC(C)(C)C(=O)/C=C/c1ccc(Oc2ccccc2)cc1,61.4,,,34.7,34.9,40.2,28.9,> 100,,> 100,,59.7,,,,28.8,75.7,
COC(=O)C(=C/c1ccc(OC)cc1)/C(C(=O)O)=C(/C)c1ccccc1,> 100,,> 100,> 100,> 100,> 100,> 100,> 100,> 100,> 100,> 100,> 100,,,,> 100,> 100,
